Measurements taken from ChEMBL document CHEMBL1781926, “Synthesis of 1-naphtylpiperazine derivatives as serotoninergic ligands and their evaluation as antiproliferative agents” (Eur J Med Chem, 2011).
One block for each compound: values may come before it. Active and inactive are the calls of the source. The rule behind the calls is not given here.

What was measured:
[1] = target: T1, 5-hydroxytryptamine receptor 1A (Rattus norvegicus, UniProt P19327); assay: Displacement of [3H]8-OH-DPAT from 5HT1A receptor in Sprague-Dawley rat brain cortex homogenates after 30 mins by liquid scintillation counting; assay type: tissue-based
T1 sequence (P19327 whole entry): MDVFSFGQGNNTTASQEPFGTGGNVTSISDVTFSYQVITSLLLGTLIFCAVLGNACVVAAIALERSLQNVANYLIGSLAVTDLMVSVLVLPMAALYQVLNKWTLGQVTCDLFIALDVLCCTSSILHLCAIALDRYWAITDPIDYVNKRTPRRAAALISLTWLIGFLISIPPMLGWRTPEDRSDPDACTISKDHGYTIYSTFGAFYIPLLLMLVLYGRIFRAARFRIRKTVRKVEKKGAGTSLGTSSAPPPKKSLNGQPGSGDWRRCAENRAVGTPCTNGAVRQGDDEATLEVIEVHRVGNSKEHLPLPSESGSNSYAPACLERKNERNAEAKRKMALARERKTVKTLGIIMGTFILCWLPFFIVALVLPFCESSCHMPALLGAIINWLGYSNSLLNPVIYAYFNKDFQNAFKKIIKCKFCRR

[2] = target: T2, Adrenergic receptor alpha-1 (Rattus norvegicus, UniProt P15823+P23944+P43140); assay: Displacement [3H]prazosin from alpha1 adrenergic receptor in rat brain cortex homogenates after 30 mins by liquid scintillation counting; assay type: tissue-based
T2 sequence (P15823 whole entry): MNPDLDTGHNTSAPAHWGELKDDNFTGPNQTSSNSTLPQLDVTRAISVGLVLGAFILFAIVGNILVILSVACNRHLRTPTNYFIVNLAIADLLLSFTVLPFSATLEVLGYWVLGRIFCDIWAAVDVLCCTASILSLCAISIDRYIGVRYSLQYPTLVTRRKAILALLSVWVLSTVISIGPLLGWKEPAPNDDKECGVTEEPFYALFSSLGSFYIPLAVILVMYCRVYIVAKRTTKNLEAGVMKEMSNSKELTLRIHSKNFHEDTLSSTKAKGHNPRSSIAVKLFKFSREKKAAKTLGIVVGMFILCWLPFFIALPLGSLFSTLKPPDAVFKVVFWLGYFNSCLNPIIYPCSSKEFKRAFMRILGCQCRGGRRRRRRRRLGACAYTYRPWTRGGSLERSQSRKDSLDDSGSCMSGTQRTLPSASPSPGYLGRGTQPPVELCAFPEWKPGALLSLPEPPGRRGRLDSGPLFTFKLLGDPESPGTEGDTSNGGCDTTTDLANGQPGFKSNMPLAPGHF
T2 sequence (P23944 whole entry): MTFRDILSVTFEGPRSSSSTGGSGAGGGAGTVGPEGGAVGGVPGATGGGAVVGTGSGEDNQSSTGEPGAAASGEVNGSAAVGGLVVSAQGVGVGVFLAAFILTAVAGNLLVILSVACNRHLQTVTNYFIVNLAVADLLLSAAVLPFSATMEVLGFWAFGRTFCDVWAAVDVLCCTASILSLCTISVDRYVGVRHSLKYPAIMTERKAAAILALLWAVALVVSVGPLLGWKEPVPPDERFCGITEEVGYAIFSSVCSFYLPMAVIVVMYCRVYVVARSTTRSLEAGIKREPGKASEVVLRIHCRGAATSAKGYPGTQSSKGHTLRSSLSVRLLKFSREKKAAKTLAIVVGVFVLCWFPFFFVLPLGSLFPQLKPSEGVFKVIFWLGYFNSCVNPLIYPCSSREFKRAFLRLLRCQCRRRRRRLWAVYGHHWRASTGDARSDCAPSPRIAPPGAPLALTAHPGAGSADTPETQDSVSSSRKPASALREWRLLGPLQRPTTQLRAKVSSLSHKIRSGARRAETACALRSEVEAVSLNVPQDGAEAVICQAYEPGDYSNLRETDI
T2 sequence (P43140 whole entry): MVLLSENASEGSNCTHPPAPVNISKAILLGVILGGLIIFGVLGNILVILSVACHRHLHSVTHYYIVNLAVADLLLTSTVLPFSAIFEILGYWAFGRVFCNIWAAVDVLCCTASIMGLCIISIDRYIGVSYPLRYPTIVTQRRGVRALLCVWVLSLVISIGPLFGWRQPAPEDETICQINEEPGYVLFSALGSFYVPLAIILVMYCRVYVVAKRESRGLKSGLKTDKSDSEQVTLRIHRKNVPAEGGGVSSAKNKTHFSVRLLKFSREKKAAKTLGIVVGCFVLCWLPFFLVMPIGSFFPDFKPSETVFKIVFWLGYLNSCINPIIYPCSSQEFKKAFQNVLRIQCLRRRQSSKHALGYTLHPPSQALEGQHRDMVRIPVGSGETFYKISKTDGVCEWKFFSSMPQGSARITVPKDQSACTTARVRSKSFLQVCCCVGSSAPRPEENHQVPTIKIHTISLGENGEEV

PC-3 [3] = assay: Cell cycle arrest in human PC3 cells assessed as accumulation at G1 phase at 15 uM after 24 hrs using propidium iodide staining by flow cytometry (reference value: 46.97 %); assay type: functional
PC-3 [4] = assay: Cell cycle arrest in human PC3 cells assessed as accumulation at G2 phase at 15 uM after 72 hrs using propidium iodide staining by flow cytometry (reference value: 20.18 %); assay type: functional
PC-3 [5] = assay: Cell cycle arrest in human PC3 cells assessed as accumulation at G1 phase at 15 uM after 48 hrs using propidium iodide staining by flow cytometry (reference value: 54.14 %); assay type: functional
PC-3 [6] = assay: Induction of apoptosis in human PC3 cells at 15 uM after 72 hrs using propidium iodide staining by flow cytometry (reference value: 1.79 %); assay type: functional
PC-3 [7] = assay: Cell cycle arrest in human PC3 cells assessed as accumulation at G1 phase at 15 uM after 72 hrs using propidium iodide staining by flow cytometry (reference value: 42.19 %); assay type: functional
PC-3 [8] = assay: Cell cycle arrest in human PC3 cells assessed as accumulation at S phase at 15 uM after 48 hrs using propidium iodide staining by flow cytometry (reference value: 38.16 %); assay type: functional
PC-3 [9] = assay: Cell cycle arrest in human PC3 cells assessed as accumulation at G2 phase at 15 uM after 48 hrs using propidium iodide staining by flow cytometry (reference value: 13.36 %); assay type: functional
PC-3 [10] = assay: Induction of apoptosis human PC3 cells assessed as externalization of phosphatidylserine on the outer layer of plasma membrane at 15 uM after 24 to 48 hrs using Annexin-V-FITC staining by flow cytometry; assay type: functional, cell-based
PC-3 [11] = assay: Cell cycle arrest in human PC3 cells assessed as accumulation at S phase at 15 uM after 24 hrs using propidium iodide staining by flow cytometry (reference value: 34.84 %); assay type: functional
PC-3 [12] = assay: Cell cycle arrest in human PC3 cells assessed as accumulation at G2 phase at 15 uM after 24 hrs using propidium iodide staining by flow cytometry (reference value: 18.19 %); assay type: functional
PC-3 [13] = assay: Induction of apoptosis in human PC3 cells at 15 uM after 48 hrs using propidium iodide staining by flow cytometry (reference value: 0.84 %); assay type: functional
PC-3 [14] = assay: Cell cycle arrest in human PC3 cells assessed as accumulation at S phase at 15 uM after 72 hrs using propidium iodide staining by flow cytometry (reference value: 37.73 %); assay type: functional
PC-3 [15] = assay: Induction of apoptosis in human PC3 cells at 15 uM after 24 hrs using propidium iodide staining by flow cytometry (reference value: 1.27 %); assay type: functional

SMILES: O=c1c2ccccc2nnn1CCN1CCN(c2cccc3ccccc23)CC1
Activity (PC-3 [3]): 38.38%
Activity (PC-3 [4]): 24.19%
Activity (PC-3 [5]): 41.36%
Activity (PC-3 [6]): 2.17%
Activity (PC-3 [7]): 45.86%
Activity (PC-3 [8]): 34.56%
Activity (PC-3 [9]): 24.08%
Activity (PC-3 [10]): Active
Activity (PC-3 [11]): 37.45%
Activity (PC-3 [12]): 24.17%
Activity (PC-3 [13]): 2.79%
Activity (PC-3 [14]): 29.95%
Activity (PC-3 [15]): 2.17%
Ki [2]: 112 nM

SMILES: O=c1c2ccccc2nnn1OCCCN1CCN(c2cccc3ccccc23)CC1
Ki [1]: > 10000 nM
Ki [2]: 800 nM

SMILES: O=c1c2ccccc2nnn1OCCN1CCN(c2cccc3ccccc23)CC1
Ki [1]: > 10000 nM
Ki [2]: > 10000 nM

The next lines start with results.

Ki [1]: 5.85 nM
Ki [2]: > 10000 nM
SMILES: N#C/N=C(\NCCCN1CCN(c2cccc3ccccc23)CC1)c1ccccn1

Ki [1]: 0.293 nM
Ki [2]: > 10000 nM
SMILES: O=C1C2C3C=CC(C3)C2C(=O)N1OCCCN1CCN(c2cccc3ccccc23)CC1 (centres undefined)

Ki [1]: 7.79 nM
Ki [2]: 562 nM
SMILES: O=c1c2ccccc2nnn1CCCN1CCN(c2cccc3ccccc23)CC1
Activity (PC-3 [3]): 37.55%
Activity (PC-3 [4]): 28.65%
Activity (PC-3 [5]): 44.13%
Activity (PC-3 [6]): 2.25%
Activity (PC-3 [7]): 43.11%
Activity (PC-3 [8]): 33.58%
Activity (PC-3 [9]): 22.29%
Activity (PC-3 [10]): Active
Activity (PC-3 [11]): 35.15%
Activity (PC-3 [12]): 27.3%
Activity (PC-3 [13]): 2.12%
Activity (PC-3 [14]): 28.24%
Activity (PC-3 [15]): 1.71%

Ki [1]: 1.58 nM
Ki [2]: > 10000 nM
SMILES: O=C1C2C3C=CC(C3)C2C(=O)N1OCCN1CCN(c2cccc3ccccc23)CC1 (centres undefined)
